Here are results for three molecules from patent publication US20060115426A1, “Methods of detecting breast cancer, brain cancer, and pancreatic cancer” (priority 2004, published 2006).

Entries after “also recorded” stand apart in the source; their conditions may differ.

Data set [1] relates to CNS-1 brain tumor xenografts. In words: MicroPET evaluation of 124I-NM404 in rat CNS-1 brain tumor model. It is filed as in vivo. The conditions noted are these: CNS-1 rats. How it is done: NM404 was radiolabeled with ^124I in excellent radiochemical yield (>60% isolated yield, >99% purity) via isotope exchange reaction of stable NM404 with sodium-iodide (Eastern Isotopes, Sterling Va.). Following preparative HPLC purification ^124I-NM404 was solubilized in 2% Tween-20 and filtered (0.22 micron). NM404 (130-200 μCi in 0.1 ml) was injected (i.v., tail vein) into 6 rats with CNS-1 brain tumor xenografts. MicroPET images (Concorde Microsystems-P4, 30 min acquisition) were acquired immediately after and at 6 h, 24 h, and 96 h post injection. Contrast-enhanced MRI images were obtained immediately following the final PET scan and PET/MRI images were manually fused using Amira (V3.1, TGS, Inc). Rats were euthanized and brain tissue subjected to histopathologic analysis.

In data set [2] the test system is spontaneous mammary carcinomas. Briefly: Bioscan imaging of 125I-NM404 in Apc Min/+ endogenous mammary adenocarcinoma model. The format is in vivo, mouse. The source says: Apc^Min/+ Mouse Model: This model is comprised of mice carrying the Min allele of Apc (Apc^Min/+ mice) and the type of lesions that appear in these mice are molecularly and histologically similar to breast cancer in humans. This model offers specific advantages over xenograft models in that female Apc^Min/+ mice are predisposed to developing mammary hyperplasias and carcinomas and intestinal adenomas. On the C57BL6/J genetic background, about 5% of untreated females will develop a mammary tumor by 100 days of age (Moser A R, et al. Proc. Natl. Acad. Sci. USA 90:8977-81, 1993). The incidence and multiplicity of the mammary lesions can be increased by a single dose of ethylnitrosourea (ENU), a direct acting alkylating agent. Treatment with ENU results in 90% of B6 Apc^Min/+ females developing an average of 3 mammary squamous cell carcinomas (SCC), but few hyperplasic lesions within 60 days after treatment.
Genetic background can affect the incidence, latency, and type of mammary lesions that develop. For example, FVBxB6 Apc^Min/+ female mice develop an average of 0.2 mammary tumors per mouse, but 4 hyperplasias per mouse within 120 days of treatment. BALB/xB6 Apc^Min/+ develop an average of 1.8 mammary tumors and 0.6 hyperplasias per mouse (Moser A R, et al. Cancer Research 61:3480-3485, 2001). FVBxB6 and BALBxB6 Apc^Min/+ mice develop both mammary SCC and adenocarcinomas (AC).
Imaging Studies: NM404 (100 μg) was radioiodinated with ^125I via isotope exchange in a melt of privalic acid. Following HPLC purification it was dissolved in an aqueous 2% tween-20 solution prior to tail vein injection (15 μCi/20 g mouse) into 6 female Apc^Min/+ mice. Mice were anesthetized and scanned for up to 30 days post injection on a modified Bioscan AR2000 radio-TLC scanner (1 mm increments at 2 mm acquisition/lane and 1 mm high-resolution collimator) and also in an ImTek microCT scanner (390 steps) for anatomic comparison. […] At sacrifice, mammary glands or excised tumors were imaged ex vivo, lesions were excised, weighed, and radioactivity quantitated. Lesion samples were submitted for histological classification. If necessary a long-acting CT blood pool contrast agent (BP20), as described in Weichert J P, et al. Radiology 216:865-871, 2000 and suitable for long microCT acquisitions times, was injected intravenously prior to CT scanning in order to assist in blood vessel visualization (FIG. 3).

The subject of another data set is viable tumor cells. Briefly: Autoradiography experiments in other tumor models. The format is in vivo. The conditions noted are these: versus normal or necrotic tissues.
Data set [3] has as its system C6 gliomas. Briefly: Biodistribution (tissue distribution) of 125I-NM404 in glioma-bearing rats. The format is in vivo, rat. To be noted: for Tumor/brain ratio: based on % injected dose/g; for tissue distribution, Thyroid: indicator of in vivo deiodination. The procedure:
(§1) Glioma tumor model: All animals were housed and handled in accordance with the University of Wisconsin Research Animal Resources Center guidelines. Rat C6 glioma cells were propagated in DMEM medium (Life Technologies, Gaithersburg, Md.) supplemented with 10% heat-inactivated FBS (BioWhittaker, Walkersville, MD), 100 U/ml penicillin-G, 100 μg/ml streptomycin, and 0.01 M hepes (Life Technologies, Gaithersburg, Md.). Intracranial tumor implantation was performed as described in Badie B, et al. J. Neuroimmunol. 133:39-45, 2002. Briefly, 1×10^6 C6 cells were resuspended in 5 μl of 1.2% methylcellulose and injected into the frontal lobes of anesthetized female Wistar rats (Harlan, Indianapolis, Ind.). Sham-operated animals received intracranial injections of an equal volume of methylcellulose without tumor cells.
Biodistribution studies: Rats bearing C6 gliomas (n=4, 10 day old tumors), and sham-operated rats (n=3) were injected with ^125I-NM404 (15 μCi/200 g rat) and biodistribution studies performed as described in Rampy M A, et al. J. Med. Chem. 38:3156-3162, 1995. Accordingly, animals were euthanized by exsanguination at 24, 48, and 96 hours following injection. A total of 17 tissues including blood, plasma, adrenal glands, bladder wall, bone marrow, brain, eye lens, fat, heart, kidney, liver, lung, muscle, spleen, skin, thyroid, and tumor were excised, rinsed, and dissected free of extraneous tissue. Tissues were minced and duplicate samples weighed and placed in plastic tubes for isotope counting in a gamma counter (Perkin Elmer/Wallac Wizard-1470). Injection site and residual carcass radioactivity were determined in a well counter (Capintec CRC-15R). Time normalized tissue distribution tables were generated by a custom computer program which produces decay-corrected tissue radioactivity concentration data on a percent injected dose/g, […], and percent injected dose/organ±SEM basis.

Data set [4] has as its system pancreatic adenocarcinomas. In words: Bioscan imaging of 125I-NM404 in c-myc spontaneous pancreatic adenocarcinoma model. To be noted: c-myc transgenic mice, adenocarcinomas 5-12 mm in diameter. It is filed as in vivo, mouse. The source says: Mouse Pancreatic Adenocarcinoma Models: Two murine strains that are transgenic for either c-myc or k-ras, well-known oncogenes, have been developed at the University of Wisconsin (Sandgren E P, et al. Proc. Natl. Acad. Sci. USA 88:93-97, 1991 and Grippo P J, et al. Cancer Research 63:2016-2019, 2003). Expression of c-myc is targeted to pancreatic acinar cells because it is linked to an elastase promoter, which is only expressed in the pancreas. These ela-1-myc transgenic mice develop acinar and ductal neoplasia, which results in death between 2 and 7 months of age. By one month of age, the pancreas appears thickened and firm. Thus mice between the ages of 1-3 months serve as excellent models for the study of pancreatic cancer. Most human pancreatic neoplasms have a ductal morphology, and Dr. Sandgren's transgene targeting strategies are aimed at developing tumors that are specific for pancreatic ductal epithelium.
Imaging Studies: In order to determine if NM404 localizes in mouse pancreatic tumors, six c-myc transgenic mice were scanned on a Bioscan AR-2000 radioTLC scanner (modified by inventors for mouse imaging) from 2-21 days after tail vein injection of ^[…] (15 μCi/20 g body weight). […] At sacrifice, tissues were excised, weighed, and radioactivity quantitated in a gamma counter.

Data set [5] has as its system C6 gliomas. In words: Bioscan imaging of excised brains of C6 glioma-bearing and sham-operated rats. It is filed as in vivo, rat. How it is done: as §1
Imaging studies: Ten days after implantation rats were screened for the presence of intracranial tumors with MRI as described in Badie B, et al. Clin. Cancer Res. 9:872-877, 2003. […]
NM404 (100 μg) was radioiodinated with ^125I via isotope exchange in a melt of pivalic acid (Weichert J P, et al. Int J Appl Rad Isotopes 37:907-913,1986). […] Co-registered Bioscan images and digital photographs were fused (Corel Photo-Paint) in order to accurately determine the location of radioactivity. […]

[6] abbreviates: Apc Min/+ mice, Bioscan imaging.

On to `C[N+](C)(C)CCOP(=O)([O-])OCCCCCCCCCCCCCCCCCCc1ccc([124I])cc1` [^124 I-NM404], for which the “tumor uptake (microPET)” value was “respectable tumor uptake” in data set [1] (6 hours following injection) and “no tumor uptake” in data set [1] (within 30 minutes of i.v. injection). Besides, the “concomitant normal brain tissue activity (microPET)” value in data set [1] (any time point) is reported as “Little to no”. Further, in data set [1] (at either 24 or 96 hours), the “tumor conspicuity (microPET)” value is given as “significant”.
Consider `C[N+](C)(C)CCOP(=O)([O-])OCCCCCCCCCCCCCCCCCCc1ccc(I)cc1` [NM404, 18-(p-iodophenyl)-octadecylphosphocholine], for which, in data set [2] (Apc Min/+ mice after i.v. 125I-NM404), the “HPLC analysis of radioactive urine and feces” value was “presence of metabolites and no parent NM404”. The “localization in focal alveolar (mammary) hyperplasias” value in data set [2] (setting [6]) is given as “no corresponding focal activity; also recorded: did not localize”. Besides, the “localization in intestinal adenomatous polyps” value in data set [2] (setting [6]) is given as “no uptake; also recorded: did not localize”. For the same molecule, the “uptake in spontaneous mammary carcinomas” value in data set [2] (Apc Min/+ mice, i.v. 125I-NM404 15 μCi/20 g, carcinomas 2-15 mm in diameter) is over 20 % dose/g. In addition, in data set [2] (Apc Min/+ mice, mammary carcinomas, 21 days = predetermined study endpoint), the tumor retention was over 21 days. In addition, the “cells/tissues capable of accumulating NM404 (autoradiography)” value in the data set with viable tumor cells was “only viable tumor cells”. The results for the Tumor/brain ratio in the data set with C6 gliomas [3] (24 h), with C6 gliomas [3] (48 h) and with C6 gliomas [3] (96 h) were 10.6, 12.0 and 7.8, respectively. Moreover, the “tissue distribution, Thyroid” value in the data set on C6 gliomas [3] (48 h, N = 1) was found to be 2.3 % injected dose/g tissue; in the data set on C6 gliomas [3] (96 h, N = 2, ± SEM), 9.0 % injected dose/g tissue. Also, the “retention in pancreatic adenocarcinomas” value in data set [4] was over 21 days. Further, in data set [4] (i.v. 15 μCi/20 g), the “uptake in pancreatic adenocarcinomas” value is on record as “striking uptake”. The “tracer uptake in C6 gliomas on Bioscan images” value in the data set on C6 gliomas [5] (C6 glioma-bearing rats, 24-96 h after i.v. 125I-NM404 15 μCi/200 g) is listed as “intense localization; also recorded: concentrated intensely”. In addition, the “radioactivity in normal brain tissue” value in the data set with C6 gliomas [5] (sham operated control rats) is recorded as “minimal”.
As for `C[N+](C)(C)CCOP(=O)([O-])OCCCCCCCCCCCCCCCCCCc1ccc([125I])cc1` [^125I-NM404], in the data set with C6 gliomas [3] (24 h, N = 1), the “tissue distribution, Blood” value was 1.83 % injected dose/g tissue; the “tissue distribution, Brain” value is reported as 0.07 % injected dose/g tissue; the “tissue distribution, Glioma” value stood at 0.74 % injected dose/g tissue; the “tissue distribution, Kidney” value was 0.91 % injected dose/g tissue. In the data set on C6 gliomas [3] (24 h, N = 1), the “tissue distribution, Liver” value came to 0.77 % injected dose/g tissue and the “tissue distribution, Spleen” value came out at 0.80 % injected dose/g tissue. Also, the Tumor/brain ratio with C6 gliomas [3] (24 h) is listed as 10.6. Also, in the data set on C6 gliomas [3] (48 h, N = 1), the “tissue distribution, Blood” value is given as 1.16 % injected dose/g tissue; the “tissue distribution, Brain” value amounted to 0.05 % injected dose/g tissue; the “tissue distribution, Glioma” value came out at 0.60 % injected dose/g tissue; the “tissue distribution, Kidney” value is 0.44 % injected dose/g tissue. Further, in the data set with C6 gliomas [3] (48 h, N = 1), the “tissue distribution, Liver” value stood at 0.30 % injected dose/g tissue; the “tissue distribution, Spleen” value is on record as 0.33 % injected dose/g tissue; the “tissue distribution, Thyroid” value was 2.34 % injected dose/g tissue. Moreover, the Tumor/brain ratio in the data set with C6 gliomas [3] (48 h) came to 12.0. Besides, in the data set with C6 gliomas [3] (96 h, N = 2, ± SEM), the “tissue distribution, Blood” value is 0.82 ± 0.01 % injected dose/g tissue; the “tissue distribution, Brain” value amounted to 0.09 ± 0.02 % injected dose/g tissue; the “tissue distribution, Glioma” value turned out to be 0.70 ± 0.04 % injected dose/g tissue; the “tissue distribution, Kidney” value was 0.45 ± 0.05 % injected dose/g tissue. Also, in the data set on C6 gliomas [3] (96 h, N = 2, ± SEM), the “tissue distribution, Liver” value was 0.39 ± 0.01 % injected dose/g tissue; the “tissue distribution, Spleen” value was 0.33 ± 0.03 % injected dose/g tissue; the “tissue distribution, Thyroid” value was found to be 9.06 ± 3.84 % injected dose/g tissue. Also, in the data set on C6 gliomas [3] (96 h), the Tumor/brain ratio is on record as 7.8.
